Reference: US20240116985A1, “STAPLED PEPTIDES AND METHODS THEREOF” (priority 2020, published 2024)

Columns and labels:
[1] = target: T1, full-length beta-Catenin (Uniprot ID P35222) (Homo sapiens, UniProt P35222); test: Fluorescence polarization IC50 (beta-catenin / 5FAM-TCF4 10-53 competition); type: binding; conditions: fluorescence polarization; read-out: beta-Catenin FP IC50
T1 construct: 10 nM full-length beta-Catenin (Uniprot ID P35222)
T1 sequence (P35222 1-781): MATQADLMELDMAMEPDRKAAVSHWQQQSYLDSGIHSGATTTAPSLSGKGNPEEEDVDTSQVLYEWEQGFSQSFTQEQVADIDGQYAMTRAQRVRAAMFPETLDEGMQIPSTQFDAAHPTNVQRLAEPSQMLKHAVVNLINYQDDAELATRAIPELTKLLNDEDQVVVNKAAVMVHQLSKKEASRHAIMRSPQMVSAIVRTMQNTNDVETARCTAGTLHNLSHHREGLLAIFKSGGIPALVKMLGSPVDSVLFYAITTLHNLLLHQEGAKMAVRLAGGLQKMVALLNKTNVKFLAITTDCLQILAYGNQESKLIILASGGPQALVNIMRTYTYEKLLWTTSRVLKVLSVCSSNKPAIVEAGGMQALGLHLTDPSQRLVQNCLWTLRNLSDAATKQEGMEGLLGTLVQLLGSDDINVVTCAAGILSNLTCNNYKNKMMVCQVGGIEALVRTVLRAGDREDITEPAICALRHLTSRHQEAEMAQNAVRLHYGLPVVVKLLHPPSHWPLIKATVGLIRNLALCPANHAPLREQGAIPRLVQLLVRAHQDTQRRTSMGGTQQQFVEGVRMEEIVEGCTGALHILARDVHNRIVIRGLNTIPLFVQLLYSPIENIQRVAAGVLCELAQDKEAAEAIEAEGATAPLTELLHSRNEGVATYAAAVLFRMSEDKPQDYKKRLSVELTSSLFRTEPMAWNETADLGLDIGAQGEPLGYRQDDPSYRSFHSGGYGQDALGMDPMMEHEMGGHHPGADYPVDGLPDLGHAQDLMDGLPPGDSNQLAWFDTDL

[2] = target: T2, beta-catenin/TCF4 engagement (Homo sapiens, UniProt P35222); test: Nano-BRET target engagement assay (B-cat-Halo & TCF4-Luc in HEK293 cells); type: cell-based; conditions: read-out: NanoBRET Abs IC50
T2 construct: expressed in transfected cells; host or cells: HEK293
T2 sequence (P35222 1-781): T1 sequence (P35222 1-781)

| IC50 [1] | IC50 [2] | SMILES |
| --- | --- | --- |
| 16 nM | 8300 nM | CC(=O)N1CCC[C@]12CC=CCCCC1(CCCC=CCCCOC(=O)N3CC[C@@](C(=O)N[C@@H](Cc4ccsc4)C(=O)N[C@@H](Cc4csc5ccccc45)C(=O)N[C@@H](C)C(N)=O)(C3)NC(=O)[C@H](CC(C)C)NC(=O)[C@H](Cc3ccccc3)NC(=O)[C@H](C)NC(=O)[C@H]([C@@H](C)O)NC(=O)[C@H](Cc3cccc(C(=O)O)c3)NC(=O)[C@H](CC(=O)O)NC1=O)NC(=O)[C@H](CC(C)(C)C)NC(=O)[C@H](CC(=O)O)NC2=O (stereo partly drawn) [I-2051, Ac-PL3-Asp-Npg-B5-Asp-3COOHF-Thr-Ala-Phe-Leu-PyrS2-3Thi-BztA-Ala-NH2] |
| 12 nM | 6000 nM | CC(=O)N1CCC[C@]12CC=CCCCC1(CCCC=CCCCOC(=O)N3CC[C@@](C(=O)N[C@@H](Cc4ccsc4)C(=O)N[C@@H](Cc4csc5ccccc45)C(=O)N[C@@H](C)C(N)=O)(C3)NC(=O)[C@H](Cc3ccccc3)NC(=O)[C@H](Cc3ccccc3)NC(=O)[C@H](C)NC(=O)[C@H](CCC(N)=O)NC(=O)[C@H](Cc3cccc(C(=O)O)c3)NC(=O)[C@H](CC(=O)O)NC1=O)NC(=O)[C@H](CC(C)(C)C)NC(=O)[C@H](CC(=O)O)NC2=O (stereo partly drawn) [I-2052, Ac-PL3-Asp-Npg-B5-Asp-3COOHF-Gln-Ala-Phe-Phe-PyrS2-3Thi-BztA-Ala-NH2] |
| 11 nM | 5000 nM | CC(=O)N1CCC[C@]12CC=CCCCC1(CCCC=CCCCOC(=O)N3CC[C@@](C(=O)N[C@@H](Cc4ccsc4)C(=O)N[C@@H](Cc4csc5ccccc45)C(=O)N[C@@H](C)C(N)=O)(C3)NC(=O)[C@H](C)NC(=O)[C@H](Cc3ccccc3)NC(=O)[C@H](C)NC(=O)[C@H](CCC(N)=O)NC(=O)[C@H](Cc3cccc(C(=O)O)c3)NC(=O)[C@H](CC(=O)O)NC1=O)NC(=O)[C@H](CC(C)(C)C)NC(=O)[C@H](CC(=O)O)NC2=O (stereo partly drawn) [I-2053, Ac-PL3-Asp-Npg-B5-Asp-3COOHF-Gln-Ala-Phe-Ala-PyrS2-3Thi-BztA-Ala-NH2] |
| 13 nM | 10500 nM | CC(=O)N1CCC[C@]12CC=CCCCC1(CCCC=CCCCOC(=O)N3CC[C@@](C(=O)N[C@@H](Cc4ccsc4)C(=O)N[C@@H](Cc4csc5ccccc45)C(=O)N[C@H](C(N)=O)C(C)C)(C3)NC(=O)[C@H](CC(C)C)NC(=O)[C@H](Cc3ccccc3)NC(=O)[C@H](C)NC(=O)[C@H](CCC(N)=O)NC(=O)[C@H](Cc3cccc(C(=O)O)c3)NC(=O)[C@H](CC(=O)O)NC1=O)NC(=O)[C@H](CC(C)(C)C)NC(=O)[C@H](CC(=O)O)NC2=O (stereo partly drawn) [I-2055, Ac-PL3-Asp-Npg-B5-Asp-3COOHF-Gln-Ala-Phe-Leu-PyrS2-3Thi-BztA-Val-NH2] |
| 16 nM | 6500 nM | CC(=O)N1CCC[C@]12CC=CCCCC1(CCCC=CCCCOC(=O)N3CC[C@@](C(=O)N[C@@H](Cc4ccsc4)C(=O)N[C@@H](Cc4csc5ccccc45)C(=O)N[C@@H](CC(C)C)C(N)=O)(C3)NC(=O)[C@H](CC(C)C)NC(=O)[C@H](Cc3ccccc3)NC(=O)[C@H](C)NC(=O)[C@H](CCC(N)=O)NC(=O)[C@H](Cc3cccc(C(=O)O)c3)NC(=O)[C@H](CC(=O)O)NC1=O)NC(=O)[C@H](CC(C)(C)C)NC(=O)[C@H](CC(=O)O)NC2=O (stereo partly drawn) [I-2056, Ac-PL3-Asp-Npg-B5-Asp-3COOHF-Gln-Ala-Phe-Leu-PyrS2-3Thi-BztA-Leu-NH2] |
| 10 nM | 3900 nM | CC(=O)N1CCC[C@]12CC=CCCCC1(CCCC=CCCCOC(=O)N3CC[C@@](C(=O)N[C@@H](Cc4ccccc4C(F)(F)F)C(=O)N[C@@H](Cc4csc5ccccc45)C(=O)N[C@@H](C)C(N)=O)(C3)NC(=O)[C@H](CC(C)C)NC(=O)[C@H](Cc3ccccc3)NC(=O)[C@H](C)NC(=O)[C@H](CC(N)=O)NC(=O)[C@H](Cc3cccc(C(=O)O)c3)NC(=O)[C@H](CC(=O)O)NC1=O)NC(=O)[C@H](CC(C)(C)C)NC(=O)[C@H](CC(=O)O)NC2=O (stereo partly drawn) [I-2058, Ac-PL3-Asp-Npg-B5-Asp-3COOHF-Asn-Ala-Phe-Leu-PyrS2-2F3MeF-BztA-Ala-NH2] |
| 38 nM | 4800 nM | CC(=O)N1CCC[C@]12CC=CCCCC1(CCCC=CCCCOC(=O)N3CC[C@@](C(=O)N[C@@H](Cc4ccccc4C(F)(F)F)C(=O)N[C@@H](Cc4csc5ccccc45)C(=O)N[C@@H](C)C(N)=O)(C3)NC(=O)[C@H](CC(C)C)NC(=O)[C@H](Cc3ccccc3)NC(=O)[C@H](C)NC(=O)[C@H](CO)NC(=O)[C@H](Cc3cccc(C(=O)O)c3)NC(=O)[C@H](CC(=O)O)NC1=O)NC(=O)[C@H](CC(C)(C)C)NC(=O)[C@H](CC(=O)O)NC2=O (stereo partly drawn) [I-2059, Ac-PL3-Asp-Npg-B5-Asp-3COOHF-Ser-Ala-Phe-Leu-PyrS2-2F3MeF-BztA-Ala-NH2] |
| 56 nM | 9600 nM | CC(=O)N1CCC[C@]12CC=CCCCC1(CCCC=CCCCOC(=O)N3CC[C@@](C(=O)N[C@@H](Cc4ccccc4C(F)(F)F)C(=O)N[C@@H](Cc4csc5ccccc45)C(=O)N[C@@H](C)C(N)=O)(C3)NC(=O)[C@H](CC(C)C)NC(=O)[C@H](Cc3ccccc3)NC(=O)[C@H](C)NC(=O)[C@H]([C@@H](C)O)NC(=O)[C@H](Cc3cccc(C(=O)O)c3)NC(=O)[C@H](CC(=O)O)NC1=O)NC(=O)[C@H](CC(C)(C)C)NC(=O)[C@H](CC(=O)O)NC2=O (stereo partly drawn) [I-2060, Ac-PL3-Asp-Npg-B5-Asp-3COOHF-Thr-Ala-Phe-Leu-PyrS2-2F3MeF-BztA-Ala-NH2] |
| 41 nM | 3000 nM | CC(=O)N1CCC[C@]12CC=CCCCC1(CCCC=CCCCOC(=O)N3CC[C@@](C(=O)N[C@@H](Cc4ccccc4Cl)C(=O)N[C@@H](Cc4csc5ccccc45)C(=O)N[C@@H](CCS(C)(=O)=O)C(N)=O)(C3)NC(=O)[C@H](CC(C)C)NC(=O)[C@H](Cc3ccccc3)NC(=O)[C@H](C)NC(=O)[C@H](C)NC(=O)[C@H](Cc3cccc(C(=O)O)c3)NC(=O)[C@H](CC(=O)O)NC1=O)NC(=O)[C@H](CC(C)(C)C)NC(=O)[C@H](CC(=O)O)NC2=O (stereo partly drawn) [I-2062, Ac-PL3-Asp-Npg-B5-Asp-3COOHF-Ala-Ala-Phe-Leu-PyrS2-2C1F-BztA-Met2O-NH2] |
| 56 nM | 3500 nM | CC(=O)N1CCC[C@]12CC=CCCCC1(CCCC=CCCCOC(=O)N3CC[C@@](C(=O)N[C@@H](Cc4ccccc4C(F)(F)F)C(=O)N[C@@H](Cc4csc5ccccc45)C(=O)N[C@@H](CCS(C)(=O)=O)C(N)=O)(C3)NC(=O)[C@H](CC(C)C)NC(=O)[C@H](Cc3ccccc3)NC(=O)[C@H](C)NC(=O)[C@H](C)NC(=O)[C@H](Cc3cccc(C(=O)O)c3)NC(=O)[C@H](CC(=O)O)NC1=O)NC(=O)[C@H](CC(C)(C)C)NC(=O)[C@H](CC(=O)O)NC2=O (stereo partly drawn) [I-2063, Ac-PL3-Asp-Npg-B5-Asp-3COOHF-Ala-Ala-Phe-Leu-PyrS2-2F3MeF-BztA-Met2O-NH2] |
| 16 nM | 11800 nM | CC(=O)N1CCC[C@]12CC=CCCCC1(CCCC=CCCCOC(=O)N3CC[C@@](C(=O)N[C@@H](Cc4ccsc4)C(=O)N[C@@H](Cc4csc5ccccc45)C(=O)N[C@@H](C)C(N)=O)(C3)NC(=O)[C@H](CC(C)C)NC(=O)[C@H](Cc3ccccc3)NC(=O)[C@H](C)NC(=O)[C@H](CCS(C)(=O)=O)NC(=O)[C@H](Cc3cccc(C(=O)O)c3)NC(=O)[C@H](CC(=O)O)NC1=O)NC(=O)[C@H](CC(C)(C)C)NC(=O)[C@H](CC(=O)O)NC2=O (stereo partly drawn) [I-2064, Ac-PL3-Asp-Npg-B5-Asp-3COOHF-Met2O-Ala-Phe-Leu-PyrS2-3Thi-BztA-Ala-NH2] |
| 144 nM | > 20000 nM | CC(=O)N1CCC[C@]12CC=CCCCC1(CCCC=CCCCOC(=O)N3CC[C@@](C(=O)N[C@@H](Cc4ccccc4)C(=O)N[C@@H](Cc4csc5ccccc45)C(=O)N[C@@H](C)C(N)=O)(C3)NC(=O)[C@H](CC(N)=O)NC(=O)[C@H](Cc3ccccc3)NC(=O)[C@H](C)NC(=O)[C@H](CCCCNC(C)C)NC(=O)[C@H](CCC(N)=O)NC(=O)[C@H](CC(=O)O)NC1=O)NC(=O)[C@H](CC1CCCCC1)NC(=O)[C@H](CC(N)=O)NC2=O (stereo partly drawn) [I-2065, Ac-PL3-Asn-Cha-B5-Asp-Gln-iPrLys-Ala-Phe-Asn-PyrS2-Phe-BztA-Ala-NH2] |
| 180 nM | > 20000 nM | CC(=O)N1CCC[C@]12CC=CCCCC1(CCCC=CCCCOC(=O)N3CC[C@@](C(=O)N[C@@H](Cc4ccccc4)C(=O)N[C@@H](Cc4csc5ccccc45)C(=O)N[C@@H](CCO)C(N)=O)(C3)NC(=O)[C@H](CC(N)=O)NC(=O)[C@H](Cc3ccccc3)NC(=O)[C@H](C)NC(=O)[C@H](CCC(N)=O)NC(=O)[C@H](CCC(N)=O)NC(=O)[C@H](CC(=O)O)NC1=O)NC(=O)[C@H](CC1CCCCC1)NC(=O)[C@H](CC(N)=O)NC2=O (stereo partly drawn) [I-2067, Ac-PL3-Asn-Cha-B5-Asp-Gln-Gln-Ala-Phe-Asn-PyrS2-Phe-BztA-Hse-NH2] |
